# Experiments:
# Assay type in all cases: physicochemical
# [1] = Dynamic vapor sorption (DVS) hygroscopicity
# Protocol: Dynamic vapor sorption (DVS) was measured using DVS advantage (Surface Measurement Systems Ltd). The samples were tested under isotherm (25° C.) at a targeted RH of 0 to 95% full cycle in step mode. For an isotherm test, the chamber temperature is maintained by a water bath at constant 25.0±1.0° C. The relative humidity in the sample chamber is generated by combining different flows of wet and dry nitrogen with variable flow rates. The analysis was performed in 10% RH increments. Sampling rate is 1 sec save data rate is 20 sec. The dm/dt (%) value was set at 0.001 with a dm/dt window of 5 min., a minimum stability duration time of 10 min, and a maximum stage time of 180 min. The sample's equilibrium weight corresponding to each RH was recorded. A sorption isotherm is obtained by plotting equilibrium moisture content versus RH.
# [2] = Solid state stability, Accelerated Stability Assessment Program (ASAP)
# Protocol: (§1) Solid State Stability: Solid state stability of Form A of a hydrochloride salt of Compound 1 was evaluated using Accelerated Stability Assessment Program (ASAP). Forced degradation storage conditions were used between 60-80° C. and 0-80% RH for up to 2 weeks. A photostress study under 2 times ICH conditions was also conducted in the solid state. The solid samples were analyzed for both chemical and chiral stability. At the end of the study, the crystalline form of the compound was verified by XRPD.
# [3] = Solid state photostress study under 2 times ICH conditions
# Protocol: as §1
# [4] = Shear sensitivity (compression, XRPD); details: compressed under 700 and 1100 lbs for 1 minute
# Protocol: Shear Sensitivity: Form A of a hydrochloride salt of Compound 1 was compressed under 700 and 1100 lbs for 1 minute and analyzed by XRPD.
# [5] = Long term solid state stability (double LDPE bags in HDPE container)
# Protocol: Long Term Solid State Stability: Form A of a hydrochloride salt of Compound 1 (packaged in double LDPE bags in HDPE container) was stored up to 3 months at 25° C./60% RH, 30° C./65% RH, and 40° C./75% RH storage conditions. […] Therefore, a re-test period of 12 months is proposed when stored at or below 25° C.
smiles,measurement,setting,value
Cl.O=C1CC[C@H](N2C(=O)c3cccc(NCc4ccc(CN5CC(N6CCOCC6)C5)cc4F)c3C2=O)C(=O)N1,solid form after DVS,[1]; after DVS,remained as Form A
same,hygroscopicity (DVS),[1]; below 90% RH,moderate hygroscopic
same,water uptake expressed as moles of water (DVS),[1]; corresponding to the about 3.0% w/w uptake,about 1 mole
same,sorption/desorption reversibility (DVS),[1]; during two full cycles,almost reversible
same,moisture picked up (DVS),[1]; from dry up to 90% RH,~2.9 % wt
same,mass increase (DVS),[1]; increase in RH from about 0% to about 95%,about 3.0%
same,water uptake (DVS),"[1]; sorption at all humidities, FIG. 7",about 3.0 % w/w
same,changes in assay,"[2]; 60-80° C., 0-80% RH, up to 2 weeks, except 80° C./0% RH after 1 week and 2 weeks",< 5%
same,LC Purity (%),"[2]; 60° C., 50% RH, 7 days",98.51%
same,R-isomer % area,"[2]; 60° C., 50% RH, 7 days",1.26 % area
same,LC Purity (%),"[2]; 60° C., 50% RH, 14 days",98.47%
same,R-isomer % area,"[2]; 60° C., 50% RH, 14 days",1.28 % area
same,LC Purity (%),"[2]; 70° C., 20% RH, 7 days",98.28%
same,R-isomer % area,"[2]; 70° C., 20% RH, 7 days",1.26 % area
same,LC Purity (%),"[2]; 70° C., 20% RH, 14 days",98.50%
same,R-isomer % area,"[2]; 70° C., 20% RH, 14 days",1.26 % area
same,LC Purity (%),"[2]; 70° C., 75% RH, 7 days",98.48%
same,R-isomer % area,"[2]; 70° C., 75% RH, 7 days",1.34 % area
same,LC Purity (%),"[2]; 70° C., 75% RH, 14 days",98.24%
same,R-isomer % area,"[2]; 70° C., 75% RH, 14 days",1.49 % area
same,LC Purity (%),"[2]; 80° C., 0% RH, 7 days",91.18%
same,R-isomer % area,"[2]; 80° C., 0% RH, 7 days",1.77 % area
same,LC Purity (%),"[2]; 80° C., 0% RH, 14 days",86.98%
same,R-isomer % area,"[2]; 80° C., 0% RH, 14 days",1.28 % area
same,LC Purity (%),"[2]; 80° C., 40% RH, 7 days",98.32%
same,R-isomer % area,"[2]; 80° C., 40% RH, 7 days",1.77 % area
same,LC Purity (%),"[2]; 80° C., 40% RH, 14 days",98.29%
same,R-isomer % area,"[2]; 80° C., 40% RH, 14 days",1.30 % area
same,LC Purity (%),"[2]; 80° C., 70% RH, 7 days",98.43%
same,R-isomer % area,"[2]; 80° C., 70% RH, 7 days",1.36 % area
same,LC Purity (%),"[2]; 80° C., 70% RH, 14 days",98.21%
same,R-isomer % area,"[2]; 80° C., 70% RH, 14 days",1.45 % area
same,change of crystalline form (XRPD),[2]; 80° C./70% RH after 10 days vs control,No change of crystalline form
same,ASAP stability conclusion,[2]; ASAP stability results,can be considered stable
same,LC Purity (%),[2]; Heat/Humidity Control,98.44%
same,R-isomer % area,[2]; Heat/Humidity Control,1.26 % area
same,maximum change in chiral purity,"[2]; across all conditions, maximum under high humidity conditions",≤ 0.2%
same,LC Purity (%),[3]; 2x ICH Photo Stressed,94.80%
same,R-isomer % area,[3]; 2x ICH Photo Stressed,1.17 % area
same,LC Purity (%),[3]; Photo Stressed Control,98.45%
same,R-isomer % area,[3]; Photo Stressed Control,1.27 % area
same,changes in assay,"[3]; photostability conditions (2 times ICH), solid state",< 4%
same,solid form after compression (XRPD),[4],remained the same
same,Appearance (Yellow powder),"[5]; 25° C./60% RH, 0 Month",Conforms
same,Chiral Purity (%),"[5]; 25° C./60% RH, 0 Month",96.0%
same,Chromatographic Purity (%),"[5]; 25° C./60% RH, 0 Month",98.6%
same,"Solid forms (XRPD), consistent with Form A","[5]; 25° C./60% RH, 0 Month",Conforms
same,Total Related Impurities (%),"[5]; 25° C./60% RH, 0 Month",1.41%
same,Water (%),"[5]; 25° C./60% RH, 0 Month",1.4%
same,Appearance (Yellow powder),"[5]; 25° C./60% RH, 1 Month",Conforms
same,Chiral Purity (%),"[5]; 25° C./60% RH, 1 Month",95.7%
same,Chromatographic Purity (%),"[5]; 25° C./60% RH, 1 Month",98.5%
same,"Solid forms (XRPD), consistent with Form A","[5]; 25° C./60% RH, 1 Month",Conforms
same,Total Related Impurities (%),"[5]; 25° C./60% RH, 1 Month",1.50%
same,Water (%),"[5]; 25° C./60% RH, 1 Month",1.7%
same,Appearance (Yellow powder),"[5]; 25° C./60% RH, 3 Month",Conforms
same,Chiral Purity (%),"[5]; 25° C./60% RH, 3 Month",95.7%
same,Chromatographic Purity (%),"[5]; 25° C./60% RH, 3 Month",98.5%
same,"Solid forms (XRPD), consistent with Form A","[5]; 25° C./60% RH, 3 Month",Conforms
same,Total Related Impurities (%),"[5]; 25° C./60% RH, 3 Month",1.55%
same,Water (%),"[5]; 25° C./60% RH, 3 Month",1.9%
same,long term solid state stability,"[5]; 25° C./60% RH, 30° C./65% RH and 40° C./75% RH for 3 months, double LDPE bags in HDPE container",demonstrate stability
same,Appearance (Yellow powder),"[5]; 30° C./65% RH, 0 Month",Conforms
same,Chiral Purity (%),"[5]; 30° C./65% RH, 0 Month",96.0%
same,Chromatographic Purity (%),"[5]; 30° C./65% RH, 0 Month",98.6%
same,Total Related Impurities (%),"[5]; 30° C./65% RH, 0 Month",1.41%
same,Water (%),"[5]; 30° C./65% RH, 0 Month",1.4%
same,Appearance (Yellow powder),"[5]; 30° C./65% RH, 1 Month",Conforms
same,Chiral Purity (%),"[5]; 30° C./65% RH, 1 Month",94.5%
same,Chromatographic Purity (%),"[5]; 30° C./65% RH, 1 Month",98.4%
same,Total Related Impurities (%),"[5]; 30° C./65% RH, 1 Month",1.56%
same,Water (%),"[5]; 30° C./65% RH, 1 Month",1.9%
same,Appearance (Yellow powder),"[5]; 30° C./65% RH, 3 Month",Conforms
same,Chiral Purity (%),"[5]; 30° C./65% RH, 3 Month",95.8%
same,Chromatographic Purity (%),"[5]; 30° C./65% RH, 3 Month",98.4%
same,Total Related Impurities (%),"[5]; 30° C./65% RH, 3 Month",1.63%
same,Water (%),"[5]; 30° C./65% RH, 3 Month",2.0%
same,Appearance (Yellow powder),"[5]; 40° C./75% RH, 0 Month",Conforms
same,Chiral Purity (%),"[5]; 40° C./75% RH, 0 Month",96.0%
same,Chromatographic Purity (%),"[5]; 40° C./75% RH, 0 Month",98.6%
same,"Solid forms (XRPD), consistent with Form A","[5]; 40° C./75% RH, 0 Month",Conforms
same,Total Related Impurities (%),"[5]; 40° C./75% RH, 0 Month",1.41%
same,Water (%),"[5]; 40° C./75% RH, 0 Month",1.4%
same,Appearance (Yellow powder),"[5]; 40° C./75% RH, 1 Month",Conforms
same,Chiral Purity (%),"[5]; 40° C./75% RH, 1 Month",96.0%
same,Chromatographic Purity (%),"[5]; 40° C./75% RH, 1 Month",98.5%
same,"Solid forms (XRPD), consistent with Form A","[5]; 40° C./75% RH, 1 Month",Conforms
same,Total Related Impurities (%),"[5]; 40° C./75% RH, 1 Month",1.52%
same,Water (%),"[5]; 40° C./75% RH, 1 Month",1.8%
same,Appearance (Yellow powder),"[5]; 40° C./75% RH, 3 Month",Conforms
same,Chiral Purity (%),"[5]; 40° C./75% RH, 3 Month",96.1%
same,Chromatographic Purity (%),"[5]; 40° C./75% RH, 3 Month",98.4%
same,"Solid forms (XRPD), consistent with Form A","[5]; 40° C./75% RH, 3 Month",Conforms
same,Total Related Impurities (%),"[5]; 40° C./75% RH, 3 Month",1.60%
same,Water (%),"[5]; 40° C./75% RH, 3 Month",2.0%
same,proposed re-test period,[5]; when stored at or below 25° C.,12 months

# Source: patent publication US11578056B2, “Solid forms comprising (S)-2-(2,6-dioxopiperidin-3-yl)-4-((2-fluoro-4-((3-morpholinoazetidin-1-yl)methyl)benzyl)amino)isoindoline-1,3-dione and salts thereof, and compositions comprising and methods of using the same” (Celgene Corporation, priority 2019, dated 2023)
